Results on one molecule are retold here after EPA's ToxValDB 9.5 (doi:10.2903/j.efsa.2011.1965).

One series concerns Anas platyrhynchos. Conditions: for LD50: oral, mortality.
The test system of the next series is Apis mellifera. Conditions: acute; duration: 48 hours; oral; unspecified; mortality.
For a further series, the system named is Colinus virginianus. Conditions: for LD50: acute, oral, mortality.
A further series deals with Cyprinus carpio. Conditions: acute; duration: 96 hours; mortality.
The test system of the next series is Daphnia magna. Conditions: chronic/long-term; duration: 21 days; reproduction.
For the next series, the system named is Oncorhynchus mykiss. Conditions: chronic/long-term; duration: 21 days; behavior.
The test system of another series is Oryctolagus sp. Conditions: reproduction developmental; reproduction.
In a further series the test system is Tagia sp. Conditions: acute; duration: 14 days; mortality.
In the next series the test system is Typhlodromus pyri. Nature of the series: LR50; higher = less toxic. Conditions: not reported; mortality.

Regarding `COc1c(Cl)ccc(Cl)c1C(=O)O` [Dicamba], the LD50 was 1370 mg/kg-day with Anas platyrhynchos (acute, unspecified); above 1570 mg/kg-day with Anas platyrhynchos (short-term, feed); above 100 µg/piece in the series on Apis mellifera; above 995 mg/kg-day in the series on Colinus virginianus (diet); 216 mg/kg-day in the series with Colinus virginianus; 1580 mg/kg-day in the series on Rattus norvegicus (acute, oral, F, mortality). For the same molecule, the NOEL in the series with Anas platyrhynchos (reproductive) was 89 mg/kg-day; in the series with Colinus virginianus (reproduction developmental), 170 mg/kg-day. The figures for the LC50 in the series with Cyprinus carpio and with Tagia sp. were above 100 µg/mL and above 1000 mg/kg, respectively. Also, the NOEC is 97 mg/L with Daphnia magna and 180 mg/L with Oncorhynchus mykiss. The NOAEL (usually the highest dose or exposure tested at which no adverse effect was seen) in the series on Oryctolagus sp. is 30 mg/kg-day; in the series on Rattus norvegicus (reproduction developmental, body weight), 35 mg/kg-day. This molecule displayed an LR50 with Typhlodromus pyri of 233 g/ha.
